According to paper PMC11410943 (Nature Communications, 2024):
Values after ≈ are worked out from the molar mass of the structure shown. Where two headings read alike, the source gives them in different places.

Assays:
[1] = test system: Escherichia coli; assay: MIC
[2] = test system: Pseudomonas aeruginosa; assay: MIC
[3] = test system: Klebsiella pneumoniae; assay: MIC
[4] = test system: Acinetobacter baumannii; assay: MIC; settings: IHMA/CARB-X MDR clinical isolates 2019, N=298
[5] = test system: Enterobacter cloacae; assay: MIC; settings: IHMA/CARB-X MDR clinical isolates 2019, N=152
[6] = test system: Citrobacter spp.; assay: MIC
[7] = test system: Proteus spp.; assay: MIC
[8] = test system: Morganella morganii; assay: MIC; settings: IHMA/CARB-X MDR clinical isolates 2019, N=42
[9] = target: E. coli gyrase (Escherichia coli, UniProt P0AES4); assay: E. coli gyrase supercoiling inhibition; format: biochemical
[10] = target: hERG K+ channel (Homo sapiens, UniProt Q12809); assay: hERG automated patch-clamp; format: cell-based
[11] = test system: Serratia marcescens; assay: MIC; settings: IHMA/CARB-X MDR clinical isolates 2019, N=45
[12] = test system: Stenotrophomonas maltophilia; assay: MIC; settings: IHMA/CARB-X MDR clinical isolates 2019, N=150
[13] = IHMA/CARB-X MDR clinical isolates 2019, N=300
[14] = IHMA/CARB-X MDR clinical isolates 2019, N=151
[15] = IHMA/CARB-X MDR clinical isolates 2019, N=152

Chain of hERG K+ channel (Q12809 whole entry): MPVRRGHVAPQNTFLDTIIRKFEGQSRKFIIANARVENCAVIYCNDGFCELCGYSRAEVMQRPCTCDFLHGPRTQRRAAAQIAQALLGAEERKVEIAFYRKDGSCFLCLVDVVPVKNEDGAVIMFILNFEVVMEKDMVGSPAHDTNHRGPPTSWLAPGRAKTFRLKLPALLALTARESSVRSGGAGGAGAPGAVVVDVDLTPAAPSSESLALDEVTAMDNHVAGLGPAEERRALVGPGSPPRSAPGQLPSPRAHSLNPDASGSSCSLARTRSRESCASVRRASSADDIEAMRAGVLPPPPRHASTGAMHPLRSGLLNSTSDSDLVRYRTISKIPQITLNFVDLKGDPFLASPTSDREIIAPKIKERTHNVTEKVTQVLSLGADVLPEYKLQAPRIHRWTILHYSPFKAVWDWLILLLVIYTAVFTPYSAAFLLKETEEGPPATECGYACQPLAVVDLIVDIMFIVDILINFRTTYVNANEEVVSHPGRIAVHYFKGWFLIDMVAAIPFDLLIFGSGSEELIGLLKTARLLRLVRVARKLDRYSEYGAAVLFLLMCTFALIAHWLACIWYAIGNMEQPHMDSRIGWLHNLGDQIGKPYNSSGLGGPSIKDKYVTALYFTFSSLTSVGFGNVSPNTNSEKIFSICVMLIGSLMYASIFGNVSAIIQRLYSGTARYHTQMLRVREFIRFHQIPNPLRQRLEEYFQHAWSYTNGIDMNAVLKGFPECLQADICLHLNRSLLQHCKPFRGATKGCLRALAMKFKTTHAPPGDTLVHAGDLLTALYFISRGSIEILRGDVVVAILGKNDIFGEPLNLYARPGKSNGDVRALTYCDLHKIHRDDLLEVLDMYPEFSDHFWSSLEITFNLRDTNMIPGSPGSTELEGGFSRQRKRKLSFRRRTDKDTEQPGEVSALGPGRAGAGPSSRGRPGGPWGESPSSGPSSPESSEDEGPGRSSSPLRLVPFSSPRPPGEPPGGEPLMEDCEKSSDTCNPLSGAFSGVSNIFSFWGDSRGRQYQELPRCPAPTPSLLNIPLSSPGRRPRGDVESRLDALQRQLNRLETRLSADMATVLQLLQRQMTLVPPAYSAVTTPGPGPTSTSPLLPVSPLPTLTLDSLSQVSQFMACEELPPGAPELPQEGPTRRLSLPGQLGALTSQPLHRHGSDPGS
Chain of E. coli gyrase (P0AES4 whole entry): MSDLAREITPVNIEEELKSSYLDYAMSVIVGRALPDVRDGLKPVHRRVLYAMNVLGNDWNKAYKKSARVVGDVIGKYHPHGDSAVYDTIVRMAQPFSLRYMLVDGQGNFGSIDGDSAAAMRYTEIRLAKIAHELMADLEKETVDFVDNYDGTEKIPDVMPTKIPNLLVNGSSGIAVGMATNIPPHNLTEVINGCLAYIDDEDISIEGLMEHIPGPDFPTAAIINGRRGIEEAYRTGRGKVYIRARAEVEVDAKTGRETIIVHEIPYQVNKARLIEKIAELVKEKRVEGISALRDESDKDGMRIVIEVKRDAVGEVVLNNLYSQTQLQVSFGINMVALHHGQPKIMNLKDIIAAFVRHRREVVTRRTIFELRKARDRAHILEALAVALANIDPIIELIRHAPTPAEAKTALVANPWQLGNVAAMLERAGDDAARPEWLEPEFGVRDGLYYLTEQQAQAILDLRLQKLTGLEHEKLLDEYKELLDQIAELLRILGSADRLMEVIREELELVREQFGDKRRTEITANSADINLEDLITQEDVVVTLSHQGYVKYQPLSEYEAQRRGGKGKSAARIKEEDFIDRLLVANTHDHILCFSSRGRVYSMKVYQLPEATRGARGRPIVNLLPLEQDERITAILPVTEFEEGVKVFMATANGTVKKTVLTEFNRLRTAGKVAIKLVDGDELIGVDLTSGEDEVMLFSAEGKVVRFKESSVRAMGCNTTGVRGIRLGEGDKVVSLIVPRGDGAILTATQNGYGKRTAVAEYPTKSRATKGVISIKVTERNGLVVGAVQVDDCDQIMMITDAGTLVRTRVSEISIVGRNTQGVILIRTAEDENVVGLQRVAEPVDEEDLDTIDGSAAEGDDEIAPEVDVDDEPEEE

Compound | MIC90 ([1]; Escherichia coli) [mg/L] | MIC90 ([2]; Pseudomonas aeruginosa) [mg/L] | MIC90 ([3]; Klebsiella pneumoniae) [mg/L] | MIC90 ([4]; Acinetobacter baumannii) [mg/L] | MIC90 ([5]; Enterobacter cloacae) [mg/L] | MIC90 ([6]; Citrobacter) [mg/L] | MIC90 [7] [mg/L] | MIC90 ([8]; Morganella morganii) [mg/L] | also measured
NCC[C@H](O)C(=O)N[C@@H]1C[C@H](N)[C@@H](O[C@H]2O[C@H](CN)[C@@H](O)[C@H](O)[C@H]2O)[C@H](O)[C@H]1O[C@H]1O[C@H](CO)[C@@H](O)[C@H](N)[C@H]1O [Amikacin] | 8 (≈ 13.7 µM) | 64 (≈ 109 µM) | 32 (≈ 54.6 µM) | > 64 | 4 (≈ 6.83 µM) | 4 (≈ 6.83 µM) | 4 (≈ 6.83 µM) | 8 (≈ 13.7 µM) | –
C[C@H]1[C@H](NC(=O)/C(=N\OC(C)(C)C(=O)O)c2csc(N)n2)C(=O)N1S(=O)(=O)O [Aztreonam] | > 64 | > 16 | > 64 | – | – | 64 (≈ 147 µM) | 0.5 (≈ 1.15 µM) | 16 (≈ 36.7 µM) | –
CO/N=C(\C(=O)N[C@@H]1C(=O)N2C(C(=O)[O-])=C(C[N+]3(C)CCCC3)CS[C@H]12)c1csc(N)n1 [Cefepime] | > 32 | > 32 | > 32 | > 32 | – | > 32 | 16 (≈ 33.3 µM) | > 32 | –
CC(C)(O/N=C(\C(=O)N[C@@H]1C(=O)N2C(C(=O)[O-])=C(C[N+]3(CCNC(=O)c4ccc(O)c(O)c4Cl)CCCC3)CS[C@H]12)c1csc(N)n1)C(=O)O [Cefiderocol] | 2 (≈ 2.66 µM) | 2 (≈ 2.66 µM) | 2 (≈ 2.66 µM) | 4 (≈ 5.32 µM) | 4 (≈ 5.32 µM) | 2 (≈ 2.66 µM) | 0.5 (≈ 0.665 µM) | 1 (≈ 1.33 µM) | –
COCC1=C(C(=O)O)N2C(=O)[C@@H](NC(=O)/C(=N\OC)c3csc(N)n3)[C@H]2SC1 [Cefpodoxime] | > 32 | – | > 32 | – | 64 (≈ 150 µM) | > 32 | > 32 | > 32 | –
CC(C)(O/N=C(\C(=O)N[C@@H]1C(=O)N2C(C(=O)[O-])=C(C[n+]3ccccc3)CS[C@H]12)c1csc(N)n1)C(=O)O [Ceftazidime] | 64 (≈ 117 µM) | > 32 | > 64 | > 32 | 128 (≈ 234 µM) | > 64 | 2 (≈ 3.66 µM) | 16 (≈ 29.3 µM) | –
CN1C(=O)Cc2ccc(F)c(CNCCCC3CN(c4ccc5c(n4)NC(=O)CO5)C(=O)O3)c21 (centres unmarked) [Compound 2, 6-[5-[3-[[(6-Fluoro-2,3-dihydro-1-methyl-2-oxo-1H-indol-7-yl)methyl]amino]propyl]−2-oxo-3-oxazolidinyl]−2H-pyrido[3,2-b]−1,4-oxazin-3(4H)-one] | – | – | – | – | – | – | – | – | improvement in gyrase supercoiling and topoIV decatenation IC50 over compound 1 [9]: > 100 fold
Cn1c(=O)ccc2ccc(F)c(CCNC[C@H]3CN(c4ncc5c(n4)NC(=O)CO5)C(=O)O3)c21 [Compound 6, 2-[(5S)−5-[[[2-(7-Fluoro-1,2-dihydro-1-methyl-2-oxo-8-quinolinyl)ethyl]amino]methyl]−2-oxo-3-oxazolidinyl]−6H-pyrimido[5,4-b][1,4]oxazin-7(8H)-one] | – | – | – | – | – | – | – | – | increase in hERG IC50 vs compound 5 [10]: > 10 fold
Cn1c(=O)cnc2ccc(F)c(CCNC[C@H]3CN(c4cnc5c(n4)NC(=O)CO5)C(=O)O3)c21 [Compound 7, 6-[(5S)−5-[[[2-(6-Fluoro-3,4-dihydro-4-methyl-3-oxo-5-quinoxalinyl)ethyl]amino]methyl]−2-oxo-3-oxazolidinyl]−2H-pyrazino[2,3-b]−1,4-oxazin-3(4H)-one] | – | – | – | – | – | – | – | – | increase in hERG IC50 vs compound 5 [10]: 4 fold
C[C@H]1c2cccc(O)c2C(=O)C2=C(O)[C@]3(O)C(=O)C(C(N)=O)=C(O)[C@@H](N(C)C)[C@@H]3[C@@H](O)[C@@H]21 [Doxycycline] | 32 (≈ 72 µM) | 32 (≈ 72 µM) | 32 (≈ 72 µM) | 64 (≈ 144 µM) | 16 (≈ 36 µM) | 16 (≈ 36 µM) | > 32 | 64 (≈ 144 µM) | –
CN(C)[C@@H]1C(O)=C(C(N)=O)C(=O)[C@@]2(O)C(O)=C3C(=O)c4c(O)c(NC(=O)CN5CCCC5)cc(F)c4C[C@H]3C[C@@H]12 [Eravacycline] | 0.25 (≈ 0.448 µM) | – | 1 (≈ 1.79 µM) | – | – | 0.5 (≈ 0.895 µM) | 2 (≈ 3.58 µM) | 1 (≈ 1.79 µM) | –
CNC(C)C1CCC(N)C(OC2C(N)CC(N)C(OC3OCC(C)(O)C(NC)C3O)C2O)O1 (centres unmarked) [Gentamicin] | > 32 | > 32 | > 32 | > 32 | 1 (≈ 2.09 µM) | 8 (≈ 16.8 µM) | 16 (≈ 33.5 µM) | 64 (≈ 134 µM) | –
C[C@H]1COc2c(N3CCN(C)CC3)c(F)cc3c(=O)c(C(=O)O)cn1c23 [Levofloxacin] | 16 (≈ 44.3 µM) | 32 (≈ 88.6 µM) | > 32 | > 32 | 64 (≈ 177 µM) | 2 (≈ 5.53 µM) | 8 (≈ 22.1 µM) | 16 (≈ 44.3 µM) | –
C[C@@H](O)[C@H]1C(=O)N2C(C(=O)O)=C(S[C@@H]3CN[C@H](C(=O)N(C)C)C3)[C@H](C)[C@H]12 [Meropenem] | ≤ 0.06 | 32 (≈ 83.4 µM) | 32 (≈ 83.4 µM) | > 64 | 8 (≈ 20.9 µM) | ≤ 0.06 | 0.125 (≈ 0.326 µM) | 0.125 (≈ 0.326 µM) | –
CN[C@@H]1[C@@H](O)[C@@H](O[C@@H]2[C@@H](O)[C@H](O[C@H]3OC(CNCCO)=CC[C@H]3N)[C@@H](N)C[C@H]2NC(=O)[C@@H](O)CCN)OC[C@]1(C)O [Plazomicin] | 1 (≈ 1.69 µM) | – | 0.5 (≈ 0.844 µM) | – | 0.5 (≈ 0.844 µM) | 0.5 (≈ 0.844 µM) | 4 (≈ 6.75 µM) | 8 (≈ 13.5 µM) | –
NC[C@H]1O[C@H](O[C@H]2[C@H](O)[C@@H](O[C@H]3O[C@H](CO)[C@@H](O)[C@H](N)[C@H]3O)[C@H](N)C[C@@H]2N)[C@H](N)C[C@@H]1O [Tobramycin] | 16 (≈ 34.2 µM) | > 32 | > 32 | > 32 | 32 (≈ 68.4 µM) | 8 (≈ 17.1 µM) | 8 (≈ 17.1 µM) | 16 (≈ 34.2 µM) | –
Aztreonam/Avibactam | – | – | – | – | – | – | – | – | MIC90 [1, 13]: 0.125 mg/L; MIC90 [2, 13]: > 16 mg/L; MIC90 [3, 13]: 0.25 mg/L; MIC90 [5]: 0.5 mg/L; MIC90 [6, 14]: 0.25 mg/L; MIC90 [7, 15]: ≤ 0.016 mg/L; MIC90 [11]: 0.25 mg/L; MIC90 [8]: 0.06 mg/L
Ceftazidime-Avibactam | – | – | – | – | – | – | – | – | MIC90 [1, 13]: 0.25 mg/L; MIC90 [2, 13]: > 16 mg/L; MIC90 [3, 13]: 1 mg/L; MIC90 [5]: 2 mg/L; MIC90 [6, 14]: 0.5 mg/L; MIC90 [7, 15]: 0.06 mg/L; MIC90 [11]: 1 mg/L; MIC90 [8]: 0.125 mg/L
Colistin | – | – | – | – | – | – | – | – | MIC90 [1, 13]: 0.25 mg/L; MIC90 [2, 13]: 1 mg/L; MIC90 [3, 13]: 0.5 mg/L; MIC90 [4]: 0.5 mg/L; MIC90 [5]: 2 mg/L; MIC90 [6, 14]: 0.5 mg/L; MIC90 [7, 15]: > 32 mg/L; MIC90 [11]: > 32 mg/L; MIC90 [8]: 64 mg/L; MIC90 [12]: > 32 mg/L
Meropenem-vaborbactam | – | – | – | – | – | – | – | – | MIC90 [1, 13]: ≤ 0.03 mg/L; MIC90 [2, 13]: 32 mg/L; MIC90 [3, 13]: 16 mg/L; MIC90 [4]: > 32 mg/L; MIC90 [5]: 0.25 mg/L; MIC90 [6, 14]: ≤ 0.03 mg/L; MIC90 [7, 15]: 0.125 mg/L; MIC90 [11]: 0.125 mg/L; MIC90 [8]: 0.06 mg/L; MIC90 [12]: > 32 mg/L
Piperacillin/Tazobactam | – | – | – | – | – | – | – | – | MIC90 [2, 13]: 128 mg/L; MIC90 [4]: > 128 mg/L; MIC90 [5]: 0.06 mg/L; MIC90 [12]: > 128 mg/L
